Measured values published in US5270321A, “Use of dicentrine and its derivatives for the treatment of arrhythmia” (priority 1992, dated 1993).
Like-named read-outs stand apart in the source and are kept apart here. Each block holds one molecule with its values, some of them ahead of it.

Columns and labels:
[1] = system: pentobarbital-anesthetized rats; assay: Systemic hemodynamic parameters of anesthetized rats; type: in vivo, rat
isolated thoracic aorta = assay: Contractile force of isolated thoracic aorta of rats fed with high cholesterol and high fat diet; type: in vivo, rat
[2] = system: conscious spontaneously hypertensive (SH) rats; assay: Mean arterial pressure in conscious spontaneously hypertensive (SH) rats; type: in vivo, rat
rat thoracic aorta = assay: Norepinephrine-induced contraction of thoracic aorta; type: cell-based
Text: They inhibited the aggregation of washed rabbit platelets induced by ADP, collagen, arachidonic acid and platelet-activating factor (PAF). […] Furthermore, the action potential of rat ventricular cells was prolonged by these fractions. After rechromatograph on a silica gel column with n-hexane-ethylacetate (2:1), four potent compounds, dicentrine, N-methylnandigerine, N-methylovigenine and dicentrinone were obtained.
The dried, ground root material (500 g) was extracted with 95% ethanol, and the extract was concentrated in vacua and fractionated into ethanol- and ethylacetate-soluble fractions. The ethylacetate-soluble fraction was then applied to a column of silica gel and eight fractions were obtained.
Concentration: arachidonic acid (100 μM), collagen (10 μg/ml),
norepinephrine (NE, 3 μM), each fraction (100 μg/ml).

normotensive (NT) rats = assay: Mean arterial pressure in conscious normotensive (NT) rats; type: in vivo, rat
calcium current = assay: Voltage clamp: calcium current in rat ventricular cells; type: cell-based
Text: (§1) In rat ventricular cells, the effects of dicentrine on action potential and membrane current were studied. […] However, calcium current was less affected.

[3] = system: fast sodium inward current; assay: Fast sodium inward current in rat ventricular cells; type: cell-based
Text: as §1

serum triglyceride = assay: Serum triglyceride level in rats fed with cholesterol-triglyceride-rich diet; type: in vivo, rat
guinea-pig trachea = assay: Contraction and relaxation of guinea-pig trachea; type: cell-based
aorta = assay: Aortic contraction induced by U-46619, angiotensin II, high potassium or carbachol; type: cell-based, rat
[4] = system: transient outward and steady state outward current; assay: Voltage clamp: transient outward and steady state outward current in rat ventricular cells; type: cell-based
Text: as §1

rat ventricular cells = assay: Action potential in rat ventricular cells; type: cell-based; settings: for AP amplitude / APD50 (action potential duration measured at 50% repolarization from the peak amplitude) / Tp (time to peak measured from the start of depolarization to the peak of the action potential): 3 μM, Ca^++ -Tyrode, 3 to 5 min exposure, means ± S.E.M.
Text: as §1
The effects of dicentrine and quinidine on action potential were compared and studied in rat ventricular cells. […] In addition to the prolongation of APD50, a depression of initial upstroke amplitude from 138.3±2.6 mV to 125.5±4.5 mV and prolongation of the time to peak amplitude from 5.0±0.5 msec to 10.0±1.9 msec were observed.

α1 -adrenoceptor = target: T1, α1 -adrenoceptor (Rattus norvegicus, UniProt P23944); assay: α1-adrenoceptor antagonism, concentration-response (Schild) analysis of norepinephrine- and phenylephrine-induced contraction of rat thoracic aortae; type: cell-based; settings: for Kb: means ± S.E.M.
T1 construct: contraction of rat thoracic aortae; from tissue; host or cells: rat thoracic aorta
T1 sequence (P23944 1-561): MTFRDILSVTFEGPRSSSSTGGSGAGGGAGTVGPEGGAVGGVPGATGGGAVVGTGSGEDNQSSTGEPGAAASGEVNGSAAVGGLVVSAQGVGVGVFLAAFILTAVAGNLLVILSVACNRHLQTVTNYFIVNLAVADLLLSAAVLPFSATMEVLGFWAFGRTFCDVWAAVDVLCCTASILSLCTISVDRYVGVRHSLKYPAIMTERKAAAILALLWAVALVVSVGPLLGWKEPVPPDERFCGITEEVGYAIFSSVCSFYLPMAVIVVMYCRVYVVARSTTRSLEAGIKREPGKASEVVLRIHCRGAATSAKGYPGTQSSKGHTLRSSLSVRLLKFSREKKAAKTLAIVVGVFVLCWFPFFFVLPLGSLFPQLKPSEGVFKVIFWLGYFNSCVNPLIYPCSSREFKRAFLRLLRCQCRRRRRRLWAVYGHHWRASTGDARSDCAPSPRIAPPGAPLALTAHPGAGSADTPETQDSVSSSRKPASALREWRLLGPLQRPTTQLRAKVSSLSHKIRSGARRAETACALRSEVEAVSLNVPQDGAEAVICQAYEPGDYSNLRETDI

[5] = pentobarbital-anesthetized rats
[6] = concentration-response curve analysis

SMILES: COc1cc2c(cc1OC)-c1c3c(cc4c1[C@H](C2)N(C)CC4)OCO3 [Dicentrine, dicentrine]
hypotensive activity after α1 -adrenoceptor blockade (in words) ([1]; after α1 -adrenoceptor blockade): completely abolished
mean arterial blood pressure (in words) ([1]; anesthetized rats, i.v. bolus 0.1-1.0 mg/kg): dose-related reduction in mean arterial blood pressure
persistence of reduction in mean arterial blood pressure ([1]; anesthetized rats, i.v. bolus 0.1-1.0 mg/kg, throughout observation period): ≥ 2 h
cardiac output (in words) [1, 5]: little or no change in cardiac output (CO)
mean arterial pressure (in words) [1, 5]: a decrease in mean arterial pressure (MAP)
total peripheral resistance (in words) [1, 5]: a reduction in total peripheral resistance by increasing blood flow
heart rate, stroke volume (in words) ([1]; pentobarbital-anesthetized rats, in comparison with prazosin): no change in heart rate (HR), or stroke volume (SV)
contractile force of cholesterol-triglyceride-treated rat aorta (in words) (isolated thoracic aorta; cholesterol-triglyceride-rich diet): restored the contractile force of cholesterol-triglyceride-treated rat aorta back to normal values
maximal contractile force of isolated thoracic aorta (in words) (isolated thoracic aorta; high cholesterol and high fat diet three weeks, dicentrine 10 mg/kg oral twice a day in the last week, prazosin 5 mg/kg): restored to normal range
mean arterial pressure (in words) ([2]; compared with NT rats): dose-related decreases in mean arterial pressure which were of greater magnitude in SH than in NT rats
persistence of hypotensive effect ([2]; oral administration): over 15 hr
vasorelaxant potency (in words) (rat thoracic aorta): the most potent vasorelaxant in rat thoracic aorta
mean arterial pressure (in words) (normotensive (NT) rats): dose-related decreases in mean arterial pressure
calcium current (in words) (calcium current): less affected
fast sodium inward current (in words) [3]: inhibition of fast sodium inward current
serum triglyceride level (in words) (serum triglyceride): decreased the serum triglyceride level
contraction of guinea-pig trachea caused by histamine or carbachol (in words) (guinea-pig trachea; histamine or carbachol): slightly inhibited
B-adrenoceptor relaxation to isoprenaline in trachea (in words) (guinea-pig trachea; isoprenaline): not affected
aortic contraction induced by U-46619, angiotensin II, high potassium or carbachol (in words) (aorta): did not affect
transient outward and steady state outward current (in words) [4]: significant inhibition of both transient outward and steady state outward current
AP amplitude (rat ventricular cells): 125.5 ± 4.5 mV
APD50 (action potential duration measured at 50% repolarization from the peak amplitude) (rat ventricular cells): 201.9 ± 28.7 ms
Tp (time to peak measured from the start of depolarization to the peak of the action potential) (rat ventricular cells): 10.0 ± 1.9 ms
AP amplitude (rat ventricular cells; listed as dicentrine): 125.5±4.5 mV
APD50 (action potential duration measured at 50% repolarization from the peak amplitude) (rat ventricular cells; listed as dicentrine): 201.9 ± 28.7 ms
Tp (time to peak measured from the start of depolarization to the peak of the action potential) (rat ventricular cells; listed as dicentrine): 10.0 ± 1.9 ms
action potential duration (in words) (rat ventricular cells; stimulation frequency 0.1 Hz): prolonged the action potential
initial upstroke amplitude (in words) (rat ventricular cells; stimulation frequency 0.1 Hz): reduced the initial upstroke amplitude
time to peak (in words) (rat ventricular cells; stimulation frequency 0.1 Hz): increased the time to peak
r (α1 -adrenoceptor; agonist norepinephrine): 0.99
Kb (α1 -adrenoceptor; agonist norepinephrine, read-out: pA2 (converted)): 6.46 nM
r (α1 -adrenoceptor; agonist phenylephrine): 0.99
potency compared with phentolamine or yohimbine (in words) (α1 -adrenoceptor; [6]): much more potent than phentolamine or yohimbine
potency compared with prazosin (in words) (α1 -adrenoceptor; [6]): less potent than prazosin
antagonism in denuded aorta (in words) (α1 -adrenoceptor; denuded aorta): These effects still persisted in denuded aorta
Kb (α1 -adrenoceptor; pA2, agonist phenylephrine): 0.977 nM
antagonism of norepinephrine- or phenylephrine-induced vasoconstriction (in words) (α1 -adrenoceptor; rat aorta): competitive antagonism

slope (α1 -adrenoceptor; Schild slope, agonist phenylephrine, 95% confidence limits in parentheses): 0.72 (0.70-1.20)
r (α1 -adrenoceptor; agonist phenylephrine): 0.99
SMILES: Cc1ccc(N(CC2=NCCN2)c2cccc(O)c2)cc1 [Phentolamine, phentolamine, reference compound]

r (α1 -adrenoceptor; agonist phenylephrine): 0.99
SMILES: COc1cc2nc(N3CCN(C(=O)c4ccco4)CC3)nc(N)c2cc1OC [Prazosin, prazosin, reference compound]
cardiac output (in words) [1, 5]: little or no change in cardiac output (CO)
mean arterial pressure (in words) [1, 5]: a decrease in mean arterial pressure (MAP)
total peripheral resistance (in words) [1, 5]: a reduction in total peripheral resistance by increasing blood flow

SMILES: C=C[C@H]1C[N@@]2CC[C@H]1C[C@@H]2[C@@H](O)c1ccnc2ccc(OC)cc12 [Quinidine, quinidine, reference compound]
AP amplitude (rat ventricular cells): 121.2 ± 2.3 mV
APD50 (action potential duration measured at 50% repolarization from the peak amplitude) (rat ventricular cells): 276.0 ± 18.6 ms
Tp (time to peak measured from the start of depolarization to the peak of the action potential) (rat ventricular cells): 10.8 ± 2.4 ms

SMILES: COC(=O)[C@@H]1[C@H]2C[C@H]3c4[nH]c5ccccc5c4CCN3C[C@@H]2CC[C@@H]1O [Yohimbine, yohimbine, reference compound]
r (α1 -adrenoceptor; agonist phenylephrine): 0.99
Kb (α1 -adrenoceptor; pA2, agonist phenylephrine): 631 nM
